CC50, EC50 and selectivity ratio data for twelve compounds are collected here from ChEMBL document CHEMBL5634111, “Design, synthesis, and anti-respiratory syncytial virus potential of novel 3-(1,2,3-triazol-1-yl)furoxazine-fused benzimidazole derivatives” (Eur J Med Chem, 2023).

Data set [1] can be described thus: Cytotoxicity against human HepG2 cells measured after 24 hrs by MTT assay. The format is toxicity, cell-based. Background: Formazan colour is commonly taken as a measure of viable cells.
For data set [2], the system named is Respiratory syncytial virus. In words: Antiviral activity against RSV infected in human HepG2 cells preincubated for 24 hrs followed by viral infection for 2 hrs and measured after 60 hrs by MTT assay. It counts as functional, organism-based.
Data set [3] is described as follows: Selectivity index, ratio of CC50 for human HepG2 cells to EC50 for RSV infected in human HepG2 cells. The format is toxicity, cell-based. The settings on record: read-out: Ratio CC50/EC50.

Molecules are shown by their SMILES.

What is called CC50 is the concentration giving 50% cytotoxicity. A low value points to greater toxicity to the cells. Turning to `Brc1cc2nc3n(c2cc1Br)[C@H]1OC[C@H](n2cc(-c4ccccc4)nn2)[C@H]1OC3`, the CC50 at 24 h in data set [1] came to 63.6 µM.
In data set [1], `CCCCCCc1cn([C@H]2CO[C@H]3[C@@H]2OCc2nc4cc(Br)c(Br)cc4n23)nn1` returned a 50% cytotoxic concentration (CC50) at 24 h of 52.3 µM.
Same read-out and setting: with `OCc1cn([C@H]2CO[C@H]3[C@@H]2OCc2nc4cc(Br)c(Br)cc4n23)nn1` the figure was 104 µM; with `Cc1c(Br)cc2nc3n(c2c1Br)[C@H]1OC[C@H](n2cc(-c4ccccc4)nn2)[C@H]1OC3`, 53.3 µM.
For orientation: EC50 means the concentration at which the effect is half-maximal. Read a low EC50 as an effect from little substance. `Brc1cc2nc3n(c2cc1Br)[C@H]1OC[C@H](n2cc(C4CC4)nn2)[C@H]1OC3` returned an EC50 in data set [2] of 6.26 µM. In addition, in data set [1], the half-maximal cytotoxic concentration (CC50) at 24 h was 40 µM. Besides, the selectivity ratio in data set [3] came out at 6.39.
Compound `CCOC(=O)c1cn([C@H]2CO[C@H]3[C@@H]2OCc2nc4cc(Br)c(Br)cc4n23)nn1` registered a 50% cytotoxic concentration (CC50) at 24 h in data set [1] of 26.9 µM.
On to `OCCCc1cn([C@H]2CO[C@H]3[C@@H]2OCc2nc4cc(Br)c(Br)cc4n23)nn1`, for which, in data set [1], the half-maximal cytotoxic concentration (CC50) at 24 h stood at 150 µM. This CC50 at 24 h lies about 5.6-fold higher than the previous one.
In data set [2], `Brc1cc2nc3n(c2cc1Br)[C@H]1OC[C@H](n2cc(COc4ccccc4)nn2)[C@H]1OC3` had an EC50 of 21.9 µM. In data set [1], this compound registered a CC50 at 24 h of 121 µM. Also, the selectivity ratio in data set [3] came to 5.73.
In turn, `OCCc1cn([C@H]2CO[C@H]3[C@@H]2OCc2nc4cc(Br)c(Br)cc4n23)nn1` came in with a CC50 at 24 h in data set [1] of 70.1 µM.
`Cc1cn([C@H]2CO[C@H]3[C@@H]2OCc2nc4cc(Br)c(C)c(Br)c4n23)nn1` showed a concentration for a half-maximal effect (EC50) in data set [2] of 14.2 µM. The compound further registered a CC50 at 24 h in data set [1] of 94.6 µM. Further, the selectivity ratio in data set [3] turned out to be 6.68.
For `CCCCCc1cn([C@H]2CO[C@H]3[C@@H]2OCc2nc4cc(Br)c(Br)cc4n23)nn1`, the CC50 at 24 h in data set [1] was 237 µM.
For `NC(=O)c1ncn([C@@H]2O[C@H](CO)[C@@H](O)[C@H]2O)n1` [RIBAVIRIN], the EC50 in data set [2] worked out at 8.41 µM. In data set [1], this compound showed a CC50 at 24 h of 246 µM. Further, the selectivity ratio in data set [3] amounted to 29.2.
